Measurements as given in article PMC10977697 (PLOS ONE, 2024).
Where no end group is shown, it is not given here.

Columns and labels:
Notch2NRR = experiment: Spot phage ELISA, Notch2NRR; format: binding, human; settings: for S/N: spot phage ELISA on Notch2NRR, signal-to-noise ratio of phage-displayed DCP clone; for ELISA: spot phage ELISA signal of phage-displayed DCP clone on Notch2NRR
PCSK9ΔCRD (PCSK9dCRD) = format: binding, human; settings: for S/N: ratio of signal for target protein over BSA background; for ELISA: spot phage ELISA signal, DCP displayed on M13 p8
Fz7CRD-Fc = format: binding; settings: for S/N: ratio of signal for target protein over BSA background; for ELISA: spot phage ELISA signal, DCP displayed on M13 p8
HtrA1 = format: binding, human; settings: ratio of signal for target protein over BSA background

| Sequence | S/N (Notch2NRR) | ELISA (Notch2NRR) | S/N (Fz7CRD-Fc) | ELISA (Fz7CRD-Fc) | other results |
| --- | --- | --- | --- | --- | --- |
| AFDCLGQCGRCDFHKLQCIWSNRNYPYCNSSCTR (disulfide (positions not given here)) [AVR9 3] | 47.3 | 3.31 | – | – | – |
| AFDCLGQCGRCDFHKLQCVFRSWQHYMYCNSSCTR (also: bicyclic or more (positions not given here)) [PCSK9dCRD AVR9 39] | – | – | – | – | S/N (PCSK9ΔCRD (PCSK9dCRD)): 9.1; ELISA (PCSK9ΔCRD (PCSK9dCRD)): 2.46 |
| AFDCLGQCGRCDFHKLQCVGKFRSFQDYQYCNSSCTR (also: bicyclic or more (positions not given here)) [PCSK9dCRD AVR9 18] | – | – | – | – | S/N (PCSK9ΔCRD (PCSK9dCRD)): 28.6; ELISA (PCSK9ΔCRD (PCSK9dCRD)): 2.52 |
| AFDCLGQCGRCDFHKLQCVHSNRNSFYCNSSCTR (disulfide (positions not given here)) [AVR9 7] | 43.6 | 3.23 | – | – | – |
| AFDCLGQCGRCDFHKLQCVLVEPSGWYQVISWKYCNSSCTR (also: bicyclic or more (positions not given here)) [Fz7CRD-Fc AVR9 2] | – | – | 5.0 | 0.29 | – |
| AFDCLGQCGRCDFHKLQCVNIEYYRDWDHYQYCNSSCTR (also: bicyclic or more (positions not given here)) [PCSK9dCRD AVR9 82] | – | – | – | – | S/N (PCSK9ΔCRD (PCSK9dCRD)): 27.6; ELISA (PCSK9ΔCRD (PCSK9dCRD)): 2.13 |
| AFDCLGQCGRCDFHKLQCVPYSWTYKQYCNSSCTR (disulfide (positions not given here)) [AVR9 9] | 35.7 | 2.57 | – | – | – |
| AFDCLGQCGRCDFHKLQCVSSNRNTPYCNSSCTR (disulfide (positions not given here)) [AVR9 5] | 45.8 | 3.31 | – | – | – |
| AFDCLGQCGRCDFHKLQCVVGWASMRNYCNSSCTR (disulfide (positions not given here)) [AVR9 8] | 42.0 | 3.14 | – | – | – |
| AFDCLGQCGRCDFHKLQCVWGNRNSSYCNSSCTR (disulfide (positions not given here)) [AVR9 6] | 35.2 | 3.28 | – | – | – |
| AFDCLGQCGRCDFHKLQCVWQTWQHYQYCNSSCTR (also: bicyclic or more (positions not given here)) [PCSK9dCRD AVR9 69] | – | – | – | – | S/N (PCSK9ΔCRD (PCSK9dCRD)): 23.5; ELISA (PCSK9ΔCRD (PCSK9dCRD)): 2.51 |
| AFDCLGQCGRCDFHKLQCVWQTWSAYLYCNSSCTR (also: bicyclic or more (positions not given here)) [PCSK9dCRD AVR9 80] | – | – | – | – | S/N (PCSK9ΔCRD (PCSK9dCRD)): 2.9; ELISA (PCSK9ΔCRD (PCSK9dCRD)): 2.10 |
| AFDCLGQCGRCDFHKLQCVWSNRHSPYCNSSCTR (disulfide (positions not given here)) [AVR9 4] | 39.3 | 3.31 | – | – | – |
| AFDCLGQCGRCDFHKLQCVWSNRNSLYCNSSCTR (disulfide (positions not given here)) [AVR9 1] | 2.0 | 3.42 | – | – | – |
| AFDCLGQCGRCDFHKLQCVWSNRNSPYCNSSCTR (disulfide (positions not given here)) [AVR9 2] | 44.7 | 3.32 | – | – | – |
| AFDCLGQCGRCDFHKLQCVWTSWGDYIKYGAYCNSSCTR (also: bicyclic or more (positions not given here)) [PCSK9dCRD AVR9 94] | – | – | – | – | S/N (PCSK9ΔCRD (PCSK9dCRD)): 10.9; ELISA (PCSK9ΔCRD (PCSK9dCRD)): 2.09 |
| AFDCLGQCGRCDFHKLQCVYESYAHYQYCNSSCTR (also: bicyclic or more (positions not given here)) [PCSK9dCRD AVR9 54] | – | – | – | – | S/N (PCSK9ΔCRD (PCSK9dCRD)): 23.7; ELISA (PCSK9ΔCRD (PCSK9dCRD)): 1.59 |
| AFDCLGQCGRCDFHKLQCVYKDWGHYLYCNSSCTR (also: bicyclic or more (positions not given here)) [PCSK9dCRD AVR9 34] | – | – | – | – | S/N (PCSK9ΔCRD (PCSK9dCRD)): 24.0; ELISA (PCSK9ΔCRD (PCSK9dCRD)): 1.80 |
| GCGWLPELKLWCKQDSDCLAGCVCEDMIDCG (also: bicyclic or more (positions not given here)) [Fz7CRD-Fc EET I-II 38] | – | – | 15.1 | 1.32 | – |
| GCGWLPELKLWCKQDSDCLAGCVCEDMIDCG (also: bicyclic or more (positions not given here)) [Fz7CRD-Fc EET I-II 42] | – | – | 36.2 | 2.79 | – |
| GCGWWFKQWFCKQDSDCLAGCVCGPNGFCG (also: bicyclic or more (positions not given here)) [Fz7CRD-Fc EET I-II 19] | – | – | 3.8 | 1.83 | – |
| GCGYWYITWFCKQDSDCLAGCVCGPNGFCG (also: bicyclic or more (positions not given here)) [Fz7CRD-Fc EET I-II 30] | – | – | 3.0 | 2.64 | – |
| GCKLMRQRCKQDSDCLAGCVCTQQWWCG (disulfide (positions not given here)) [N2N-EET-94] | 36.3 | 3.52 | – | – | – |
| GCNGQRRPWGRWCKQDSDCLAGCVCGPNGFCG (disulfide (positions not given here)) [N2N-EET-33-P1] | 11.9 | 2.39 | – | – | – |
| GCTLMRTRCKQDSDCLAGCVCEHIYWCG (disulfide (positions not given here)) [N2N-EET-n19] | 12.8 | 3.16 | – | – | – |

| Sequence | S/N (Notch2NRR) | ELISA (Notch2NRR) | S/N (Fz7CRD-Fc) | ELISA (Fz7CRD-Fc) | other results |
| --- | --- | --- | --- | --- | --- |
| GCTLYMYLCKQDSDCLAGWMFHHCG [Fz7CRD-Fc EET I-II 26] | – | – | 28.9 | 1.79 | – |
| GCTLYMYLCKQDSDCLAGWMFHHCG [Fz7CRD-Fc EET I-II 55] | – | – | 29.3 | 2.81 | – |
| GCVHVIREWWCKQDSDSSWFVCGPNGFCG [Fz7CRD-Fc EET I-II 17] | – | – | 26.4 | 2.69 | – |
| GPTQSAFGECGGIGYSGPTVCASGTTCQVLSPMFSFCLPGAS (also: bicyclic or more (positions not given here)) [Fz7CRD-Fc CBD 57] | – | – | 28.7 | 2.41 | – |
| GPTQSAFGECGGIGYSGPTVCASGTTCQVLSPYWSFCLPGAS (also: bicyclic or more (positions not given here)) [Fz7CRD-Fc CBD 15] | – | – | 38.4 | 2.76 | – |
| GPTQSAGGWCGGIGYSGPTVCASGTTCQVLTPMESICLPGAS (also: bicyclic or more (positions not given here)) [Fz7CRD-Fc CBD 29] | – | – | 5.7 | 0.36 | – |
| GPTQSAWGWCGGIGYSGPTVCASGTTCQVLSPYESYCLPGAS (also: bicyclic or more (positions not given here)) [Fz7CRD-Fc CBD 53] | – | – | 4.3 | 0.32 | – |
| GPTQSHYGQCGGAGYWGRWICSGTTCQPLPQSKSQCLPGAS (disulfide (positions not given here)) [CBD 1] | 38.2 | 3.79 | – | – | – |
| GPTQSHYGQCGGEGYWGRWICSGTTCQPYNTHFSQCLPGAS (disulfide (positions not given here)) [CBD 2] | 28.5 | 3.05 | – | – | – |
| GPTQSHYGQCGGFGYWGMRHCSGTTCQWQHLPSQ CLPGAS (disulfide) [CBD 3] | 36.6 | 3.00 | – | – | – |
| GPTQSHYGQCGGQGYWGMRHCSGTTCQWGAKGPSQCLPGAS (disulfide (positions not given here)) [CBD 4] | 33.1 | 3.68 | – | – | – |
| GPTQSHYGQCGGTGYWGMRNCSGTTCQRFAPQNSQCLPGAS (disulfide (positions not given here)) [CBD 5] | 47.2 | 3.59 | – | – | – |
| GPTQSIWGECGGIGYSGPTVCASGTTCQVLTPFYSFCLPGAS (also: bicyclic or more (positions not given here)) [Fz7CRD-Fc CBD 14] | – | – | 15.7 | 1.18 | – |
| GPTQSKYGVCGGIGYSGPTVCASGTTCQVLYPGYSLCLPGAS (also: bicyclic or more (positions not given here)) [Fz7CRD-Fc CBD 72] | – | – | 37.9 | 2.80 | – |
| GPTQSLWGECGGIGYSGPTVCASGTTCQVLSPEYSFCLPGAS (also: bicyclic or more (positions not given here)) [Fz7CRD-Fc CBD 18] | – | – | 16.4 | 1.75 | – |
| GPTQSMFGECGGIGYSGPTVCASGTTCQVLSPFYSFCLPGAS (also: bicyclic or more (positions not given here)) [Fz7CRD-Fc CBD 47] | – | – | 30.4 | 2.59 | – |
| GPTQSMWGECGGIGYSGPTVCASGTTCQVLSPFYSFCLPGAS (also: bicyclic or more (positions not given here)) [Fz7CRD-Fc CBD 56] | – | – | 3.7 | 0.27 | – |
| GPTQSVYGYCGGIGYSGPTVCASGTTCQVLFPGHSFCLPGAS (also: bicyclic or more (positions not given here)) [Fz7CRD-Fc CBD 23] | – | – | 20.9 | 2.78 | – |
| GPTQSWFGQCGGIGYSGPTVCASGTTCQVLVPDMSFCLPGAS (also: bicyclic or more (positions not given here)) [Fz7CRD-Fc CBD 87] | – | – | 32.0 | 2.66 | – |
| WIPCISAALGCSCKNKVCYQVWQHIFKCGESCV (also: bicyclic or more (positions not given here)) [HtrA1 CirculinA 67] | – | – | – | – | S/N (HtrA1): 15.4 |
| WIPCISAALGCSCKNKVCYVATMVVHWVCGESCV (also: bicyclic or more (positions not given here)) [HtrA1 CirculinA 34] | – | – | – | – | S/N (HtrA1): 16.8 |
| WIPCISAALGCSCKNKVCYYAGKIYSWQAQLLCGESCV (also: bicyclic or more (positions not given here)) [HtrA1 CirculinA 93] | – | – | – | – | S/N (HtrA1): 8.4 |
| WIPCISAALGCSCKNKVCYYMWHVHSLICGESCV (also: bicyclic or more (positions not given here)) [HtrA1 CirculinA 36] | – | – | – | – | S/N (HtrA1): 9.6 |
| WIPCISAALGCSCKNKVCYYTILPISYYWHLVCGESCV (also: bicyclic or more (positions not given here)) [HtrA1 CirculinA 45] | – | – | – | – | S/N (HtrA1): 8.2 |
| WIPCISAALGCSCKNKVCYYVMKYCGESCV (also: bicyclic or more (positions not given here)) [HtrA1 CirculinA 17] | – | – | – | – | S/N (HtrA1): 13.7 |
